One may read the inhibition as the drop in the measured response relative to a control, in per cent. One may read the IC50 as the concentration needed to halve the response being measured.

Read-outs that look alike come from different tables or passages of the source.

We go through 7 compounds from article PMC10698726 (Molecular Pharmaceutics, 2023).

In one data set the target is T1, OCT2 (Homo sapiens, UniProt O15244).
T1 sequence (O15244 1-555): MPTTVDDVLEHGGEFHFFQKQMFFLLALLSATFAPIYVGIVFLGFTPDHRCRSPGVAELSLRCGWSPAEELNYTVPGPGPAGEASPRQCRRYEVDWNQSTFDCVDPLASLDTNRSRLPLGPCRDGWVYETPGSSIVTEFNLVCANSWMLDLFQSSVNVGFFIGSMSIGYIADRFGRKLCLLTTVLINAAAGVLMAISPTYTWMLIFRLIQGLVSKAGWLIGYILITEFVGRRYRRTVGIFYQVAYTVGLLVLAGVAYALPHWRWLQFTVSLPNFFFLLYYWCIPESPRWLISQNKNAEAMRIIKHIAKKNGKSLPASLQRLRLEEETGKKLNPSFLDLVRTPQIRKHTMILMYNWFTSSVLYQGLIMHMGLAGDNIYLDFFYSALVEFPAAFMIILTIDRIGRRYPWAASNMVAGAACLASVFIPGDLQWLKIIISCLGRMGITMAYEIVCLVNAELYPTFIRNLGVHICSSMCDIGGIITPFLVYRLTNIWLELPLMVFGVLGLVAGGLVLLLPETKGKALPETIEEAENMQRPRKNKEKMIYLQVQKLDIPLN
Description: Inhibition of model substrate uptake in OCT2-overexpressing HEK293 cells. Conditions: for N-Ethyllidocaine inhibition [%] / inhibition at 5 min, 20 μM / (S,S)-Ethambutol inhibition [%]: OCT2, 20 μM inhibitor. Here is the method:
(§1) All experiments were carried out in transporter-overexpressing HEK293 cells. OCT1-, OCT2-, NET-, DAT-, and SERT-overexpressing cells as well as the empty-vector transfected control cell line were generated as described earlier,[26]−[28] whereas the OCT3-overexpressing HEK293 cells were generous gift of from Drs. Koepsell and Gorbulev (University of Würzburg, Germany). All cells were cultivated in Dulbecco’s modified Eagle’s medium (DMEM) supplemented with 10% (v/v) FCS, penicillin (100 U/mL), and streptomycin (100 μg/mL) and kept in culture for no longer than 30 passages.
(§2) As for the transport experiments, 300,000 HEK293 cells were plated in poly-D-lysine-coated 24-well plates 2 days ahead of the experiment. On every plate, two wells of empty vector (EV)-transfected cells were used as a control to account for the passive influx of the model substrate, and two wells of transporter-overexpressing cells were used to determine the noninhibited uptake of the model substrate. Cells were initially washed once with 37 °C HBSS+ and then incubated with 2 μM model substrate (0.2 μM for MPP^+ uptake by MATs) with and without 20 μM inhibitor for 5 min. For concentration-dependent inhibition experiments, the cells were incubated with increasing inhibitor concentrations. The incubation was terminated by aspiration of the buffer before cells were washed twice with ice-cold HBSS+ and lysed in 80% acetonitrile. Cell lysates were transferred into a black 96-well plate for the fluorescence measurement of ASP^+ or used for sample preparation for LC–MS/MS analysis. […] Fluorescence quantification was performed in technical duplicates.
(§3) Transporter-mediated net uptake was calculated as the difference between uptake in transporter-overexpressing cells and that in the empty-vector-transfected control. […] Vmax is the maximum transport velocity, while Km is defined as the substance concentration that is required to reach half of vmax. The ratio of vmax over Km is termed intrinsic clearance Clint. For inhibition experiments, the transport activity was calculated by using the following equation [drawing 1]
(§4) SubstrateEV refers to the passive uptake of model substrates into the control cells and substratenoninhibited is the uptake in transporter-overexpressing cells without the presence of any inhibitor. The percent inhibition values are then calculated as described in the following [drawing 2]
(§5) For concentration inhibition experiments, the transporter activity was plotted against the log10 of inhibitor concentrations, and the data were fitted by the following equation to determine IC50 values [drawing 3]
(§6) Y refers to the transporter activity, whereas Ymax is the maximum and Ymin is the minimal transporter activity. X is the log10 of inhibitor concentrations, IC50 is the half-maximal inhibitory concentration, and hill slope is the slope factor.

A further data set has as its target T2, OCT1 (Homo sapiens, UniProt O15245).
T2 sequence (O15245 1-554): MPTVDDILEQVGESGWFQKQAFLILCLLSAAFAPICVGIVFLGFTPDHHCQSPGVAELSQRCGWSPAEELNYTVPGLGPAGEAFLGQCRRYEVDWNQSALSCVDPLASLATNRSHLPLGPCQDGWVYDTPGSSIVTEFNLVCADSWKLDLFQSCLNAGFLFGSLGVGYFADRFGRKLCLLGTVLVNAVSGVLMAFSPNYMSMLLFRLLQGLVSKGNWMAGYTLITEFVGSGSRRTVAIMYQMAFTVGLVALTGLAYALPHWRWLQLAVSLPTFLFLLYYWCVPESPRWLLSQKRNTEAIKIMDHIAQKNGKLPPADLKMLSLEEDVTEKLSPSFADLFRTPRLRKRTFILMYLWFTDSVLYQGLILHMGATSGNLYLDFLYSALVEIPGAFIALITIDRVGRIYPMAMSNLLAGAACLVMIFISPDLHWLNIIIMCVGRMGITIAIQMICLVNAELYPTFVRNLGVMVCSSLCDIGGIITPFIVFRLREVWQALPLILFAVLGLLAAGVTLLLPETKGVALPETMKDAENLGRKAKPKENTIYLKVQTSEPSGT
Briefly: Inhibition of model substrate uptake in OCT1-overexpressing HEK293 cells. Details: expressed in transfected cells; host or cells: HEK293. The conditions noted are these: 5 min; for inhibition at 5 min, 20 μM: human, OCT1-overexpressing HEK293 cells. Format: cell-based. Here is the method: Koepsell and Gorbulev (University of Würzburg, Germany).
Fluorescence quantification was performed in technical duplicates.

The next data set deals with T3, OCT3 (Homo sapiens, UniProt O75751).
T3 construct: expressed in transfected cells; host or cells: HEK293
T3 sequence (O75751 1-556): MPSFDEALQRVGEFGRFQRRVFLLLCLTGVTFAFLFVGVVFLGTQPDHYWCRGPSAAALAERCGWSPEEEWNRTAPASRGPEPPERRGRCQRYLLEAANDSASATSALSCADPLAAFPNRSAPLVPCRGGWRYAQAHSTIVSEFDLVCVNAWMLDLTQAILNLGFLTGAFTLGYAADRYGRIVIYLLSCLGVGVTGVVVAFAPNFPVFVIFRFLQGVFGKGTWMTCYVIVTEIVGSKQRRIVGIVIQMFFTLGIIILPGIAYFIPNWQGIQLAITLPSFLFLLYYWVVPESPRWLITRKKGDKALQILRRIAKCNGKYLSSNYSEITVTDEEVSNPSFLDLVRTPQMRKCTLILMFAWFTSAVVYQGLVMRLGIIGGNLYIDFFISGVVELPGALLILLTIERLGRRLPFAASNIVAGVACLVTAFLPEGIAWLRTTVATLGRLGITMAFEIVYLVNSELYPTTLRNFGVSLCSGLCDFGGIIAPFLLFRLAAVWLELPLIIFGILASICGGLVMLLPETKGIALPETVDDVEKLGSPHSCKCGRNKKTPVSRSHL
Description: Inhibition of model substrate uptake in OCT3-overexpressing HEK293 cells. Format: cell-based. Here is the method:
as §1, §2, §3, §4, §5, §6

The mark [1] stands for this setting: human, OCT2-overexpressing HEK293 cells, pH 7.4, probe (S,S)-ethambutol (2 μM), (S,S)-Ethambutol inhibition [%], 2 μM (S,S)-ethambutol, 5 min.
Where [2] appears, read: human, OCT2-overexpressing HEK293 cells, pH 7.4, probe ASP+ (2 μM), ASP+ inhibition [%], 2 μM ASP+, 5 min.
Setting [3] is: pH 7.4, probe (S,S)-ethambutol (2 μM), (S,S)-Ethambutol inhibition [%], OCT1, 20 μM inhibitor, 2 μM (S,S)-ethambutol.
The mark [4] stands for this setting: pH 7.4, probe ASP+ (2 μM), OCT1, 20 μM inhibitor, 2 μM ASP+, mean of three experiments, read-out: ASP+ inhibition [%].
The mark [5] stands for this setting: pH 7.4, probe sumatriptan (2 μM), OCT1, 20 μM inhibitor, 2 μM sumatriptan, read-out: Sumatriptan inhibition [%].
Setting [6] is: HEK293, 5 min, read-out: (S)-Zolmitriptan inhibition [%], OCT3, 20 μM inhibitor, 2 μM (S)-zolmitriptan, 5 min.
[7] abbreviates: HEK293, 5 min, read-out: (S,S)-Ethambutol inhibition [%], OCT3, 20 μM inhibitor, 2 μM (S,S)-ethambutol, 5 min.
[8] abbreviates: HEK293, OCT3, 20 μM inhibitor, 2 μM ASP+, 5 min, read-out: ASP+ inhibition [%].
Setting [9] is: human, OCT2-overexpressing HEK293 cells, pH 7.4, probe N-ethyllidocaine (2 μM), N-Ethyllidocaine inhibition [%], 2 μM N-ethyllidocaine, 5 min.
Where [10] appears, read: OCT3, 20 μM inhibitor, 2 μM (S)-zolmitriptan, 5 min.
[11] abbreviates: HEK293, 5 min, read-out: (S)-Zolmitriptan inhibition [%].
The mark [12] stands for this setting: HEK293, 5 min, read-out: (S,S)-Ethambutol inhibition [%].

For `CN(C)CCO[C@](C)(c1ccccc1)c1ccccn1` [(R)-Doxylamine], the “N-Ethyllidocaine inhibition [%]” value on OCT2 (2 μM N-ethyllidocaine, 5 min) is on record as -13.8%. The inhibition at 5 min, 20 μM against OCT2 (setting [1]) was determined as 26.2%; on OCT2 (setting [2]) it was 73.2%; at OCT1 (setting [3]), 96%; on OCT1 (setting [4]) it was 63.6%; on OCT1 (setting [5]) it was 90.8%. For the same compound, the IC50 at OCT1 (OCT1, Table S5, 2 μM ASP+ or ethambutol as model substrate, read-out: IC50) turned out to be 22.3 µM. The inhibition at 20 µM at OCT3 (setting [6]) turned out to be 17.7%; on OCT3 (setting [7]), 23.4%; on OCT3 (setting [8]) it was 12.2%.
Take `OC[C@H](O)CN1CCN(c2ccccc2)CC1` [(R)-Dropropizine]: at OCT2 (IC50, OCT2, Table S5, 2 μM ASP+ as model substrate, 5 min), 80.6 µM corresponded to half-maximal inhibition (IC50). Moreover, the selectivity ratio at 5 min at OCT2 (human, OCT2-overexpressing HEK293 cells, pH 7.4) stood at 1.4. For the same compound, the inhibition at 5 min, 20 μM is 28% on OCT2 (setting [1]); 40.8% on OCT2 (setting [2]); 8% against OCT2 (setting [9]); 30.1% against OCT1 (setting [3]); 26.2% at OCT1 (setting [4]); 41% on OCT1 (setting [5]). Moreover, the inhibition at 20 µM on OCT3 (setting [7]) was 5.8%; on OCT3 (setting [8]) it was 26.4%. The “(S)-Zolmitriptan inhibition [%]” value at OCT3 (setting [10]) was -30.2%.
`CNCC[C@@H](Oc1cccc2ccccc12)c1cccs1` [(R)-Duloxetine] returned an IC50 at OCT2 (IC50) of 25.3 µM. In addition, the inhibition at 5 min, 20 μM amounted to 33.2% against OCT2 (setting [1]); 53.3% against OCT2 (setting [2]); 50.1% on OCT2 (setting [9]); 85.1% against OCT1 (setting [3]); 41.3% on OCT1 (setting [4]); 86.8% on OCT1 (setting [5]). The inhibition at 20 µM on OCT3 (setting [11]) worked out at 1.6%; on OCT3 (setting [12]), 16.7%; on OCT3 (HEK293, read-out: ASP+ inhibition [%]), 3.8%.
In the case of `CNCC[C@@H](Oc1ccc(C(F)(F)F)cc1)c1ccccc1` [(R)-Fluoxetine], the “(S,S)-Ethambutol inhibition [%]” value at OCT2 (2 μM (S,S)-ethambutol, 5 min) is 28.2%. For the same compound, the “N-Ethyllidocaine inhibition [%]” value at OCT2 (2 μM N-ethyllidocaine, 5 min) is reported as 48.9%. Further, the inhibition at 5 min, 20 μM is 65.6% on OCT2 (setting [2]), 77.5% against OCT1 (setting [3]), 45.6% on OCT1 (setting [4]) and 83.4% at OCT1 (setting [5]). Also, at OCT3, the “ASP+ inhibition [%]” value is -6.0%. Besides, the inhibition at 20 µM at OCT3 (setting [11]) was 17%; on OCT3 (setting [12]) it was 9.6%.
For the compound `CC(C)Cc1ccc([C@@H](C)C(=O)O)cc1` [(R)-Ibuprofen], the inhibition at 5 min, 20 μM against OCT2 (setting [1]) was 7%; on OCT2 (setting [2]) it was 11.5%; against OCT2 (setting [9]), 7.9%; at OCT1 (setting [3]) it was 5.6%; at OCT1 (setting [4]) it was 8.3%; at OCT1 (setting [5]), -7.2%. The figures for the inhibition at 20 µM at OCT3 (setting [6]), on OCT3 (setting [7]) and on OCT3 (setting [8]) were -1.9%, 3.2% and 12.1%, respectively.
With `Cc1cccc(C)c1OC[C@@H](C)N` [(R)-Mexiletine], the inhibition at 5 min, 20 μM against OCT2 (setting [1]) is 52.1%; on OCT2 (setting [2]), 47%; against OCT2 (setting [9]), 52.2%; on OCT1 (setting [3]), 79.6%; at OCT1 (setting [4]) it was 30.4%; on OCT1 (setting [5]), 85.6%. In addition, the results for the inhibition at 20 µM at OCT3 (setting [6]), on OCT3 (setting [7]) and on OCT3 (setting [8]) were 25%, 11.6% and -17.2%, respectively.
As for `NC[C@H](O)c1ccc(O)c(O)c1` [(R)-Norepinephrine], the “(S,S)-Ethambutol inhibition [%]” value is -1.8% on OCT2 (2 μM (S,S)-ethambutol, 5 min); -19.9% on OCT1 (OCT1, 20 μM inhibitor, 2 μM (S,S)-ethambutol); 5.7% at OCT3 (OCT3, 20 μM inhibitor, 2 μM (S,S)-ethambutol, 5 min). The inhibition at 5 min, 20 μM against OCT2 (setting [2]) came to 23.1%; on OCT2 (setting [9]) it was 5.4%. The “ASP+ inhibition [%]” value at OCT1 (OCT1, 20 μM inhibitor, 2 μM ASP+, mean of three experiments) is -4.8%; on OCT3 (OCT3, 20 μM inhibitor, 2 μM ASP+, 5 min), 8.4%. Besides, the “Sumatriptan inhibition [%]” value at OCT1 (OCT1, 20 μM inhibitor, 2 μM sumatriptan) is given as -1.3%. Moreover, the “(S)-Zolmitriptan inhibition [%]” value on OCT3 (setting [10]) was -4.3%.
